Values quoted from earlier work, collected in PubChem BioAssay AID1259409 (Chemical Carcinogenesis Research Information System (CCRIS), 2018).

System: rodent chemically induced tumor inhibition, incidence and multiplicity
Test: CCRIS tumor inhibitor studies

| Structure (SMILES) | outcome (Carcinogen: Vinyl carbamate, 15805-73-9, Dose [Inhibitor]: 50 mg/kg once at beginning of experiment (Study duration: 25 wk), Route [Inhibitor]: Oral, Species: Mouse, Strain/Sex: F1 (Big Blue x A/J), Target Tissue: Type of Lesion: Lung: Papilliary tumors and solid tumors, Dose [Carcinogen]: 60 mg/kg once 2 hr after inhibitor (Study duration: 25 wk), Promoter: None) | tumour outcome (control, treated, inhibition, significance) (Carcinogen: 7,12-DIMETHYLBENZ[A]ANTHRACENE, 57-97-6, Dose [Inhibitor]: 0, 2 UMOL 2/WK FOR 18 WK APPLIED 30 MIN PRIOR TO EACH PROMOTER DOSE BEGINNING 1 WK POST CARCINOGEN DOSE (STUDY DURATION:, Route [Inhibitor]: DERMAL, Species: MOUSE, Strain/Sex: ICR/FEMALE, Target Tissue: Type of Lesion: SKIN: PAPILLOMA, Dose [Carcinogen]: 50 UG ONCE, Promoter: 12-O-TETRADECANOYLPHORBOL-13-ACETATE, 16561-29-8) |
| --- | --- | --- |
| C=CCS(=O)(=O)CC=C | papilliary tumors: 84 (58%), 21 (13.5%), p<0.01 (significant decrease). solid tu | – |
| C/C=C/C1=CC2=CC3=C(C(=O)CCCCCCC)C(=O)O[C@@]3(C)C(=O)C2=CO1 | – | 100%, 7%, 93%, not calculated |
